By IC50 is commonly meant the concentration needed to halve the response being measured. A higher IC50 goes with a need for much substance.

The target of this assay is PKMYT1 (Homo sapiens (Human), UniProt Q99640). The experiment in a line: In vitro assay: kinase binding to immobilized ligand, captured kinase measured by qPCR. In general terms: Quantitative PCR measures a nucleic acid by following its amplification.
Chain of PKMYT1 (Q99640 whole entry): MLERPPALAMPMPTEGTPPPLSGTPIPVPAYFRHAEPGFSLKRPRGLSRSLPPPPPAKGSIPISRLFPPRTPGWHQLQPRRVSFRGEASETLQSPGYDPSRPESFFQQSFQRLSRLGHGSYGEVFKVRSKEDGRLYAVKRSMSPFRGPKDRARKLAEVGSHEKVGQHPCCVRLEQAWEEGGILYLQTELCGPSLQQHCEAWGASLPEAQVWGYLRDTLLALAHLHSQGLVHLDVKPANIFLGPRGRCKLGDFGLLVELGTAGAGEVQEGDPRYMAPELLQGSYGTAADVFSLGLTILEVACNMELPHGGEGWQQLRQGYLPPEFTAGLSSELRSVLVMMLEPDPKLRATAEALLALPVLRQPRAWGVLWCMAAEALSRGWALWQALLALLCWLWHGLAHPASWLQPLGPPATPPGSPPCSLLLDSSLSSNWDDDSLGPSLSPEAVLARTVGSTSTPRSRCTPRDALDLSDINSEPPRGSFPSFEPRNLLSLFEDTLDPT
Description: Screening “hits” were identified by measuring the amount of kinase captured in test versus control samples by using a quantitative, precise and ultra-sensitive qPCR method that detect the associated DNA label.
For the compound `Cc1ccc(O)c(C)c1-n1c(N)c(C(N)=O)c2cnc(NCCO)nc21` (atropisomer, axis not shown) [Compound 588, 6-amino-7-(3-hydroxy-2,6-dimethylphenyl)-2-((2-hydroxyethyl)amino)-7H-pyrrolo[2,3-d]pyrimidine-5-carboxamide], the IC50 is less than 50 nM. In the case of `Cc1ccc(O)c(C)c1-n1c(N)c(C(N)=O)c2cnc(N[C@@H]3CCC[C@@H]3O)nc21` (atropisomer, axis not shown) [Compound 591] it was 50 to 100 nM; in that of `Cc1ccc(O)c(C)c1-n1c(N)c(C(N)=O)c2cncc(F)c21` (atropisomer, axis not shown) [Compound 624, 2-amino-7-fluoro-1-(3-hydroxy-2,6-dimethyl-phenyl)pyrrolo[3,2-c]pyridine-3-carboxamide], less than 50 nM. Compound `Cc1ccc(O)c(C)c1-n1c(N)c(C(N)=O)c2cncnc21` (single isomer, unassigned) [Compound 571, 6-amino-7-(3-hydroxy-2,6-dimethylphenyl)-7H-pyrrolo[2,3-d]pyrimidine-5-carboxamide] displayed an IC50 of 100 to 1000 nM. `Cc1ccc(O)c(C)c1-n1c(N)c(C(N)=O)c2cnc(NCCO)nc21` (single isomer, unassigned) [Compound 585, 6-amino-7-(3-hydroxy-2,6-dimethylphenyl)-2-((2-hydroxyethyl)amino)-7H-pyrrolo[2,3-d]pyrimidine-5-carboxamide] displayed an IC50 greater than 1000 nM. In the case of `Cc1cc2c(c(C)c1-n1c(N)c(C(N)=O)c3cc(Cl)cnc31)OCO2` [Compound 546, 2-amino-5-chloro-1-(4,6-dimethylbenzo[d][1,3]dioxol-5-yl)-1H-pyrrolo[2,3-b]pyridine-3-carboxamide], the IC50 was greater than 1000 nM.

The compound `Cc1ccc(O)c(C)c1-c1c(N)c(C(N)=O)c2nccc(C)n12` [Compound 548, 7-amino-6-(3-hydroxy-2,6-dimethyl-phenyl)-4-methyl-pyrrolo[1,2-a]pyrimidine-8-carboxamide] displayed an IC50 of 100 to 1000 nM. In the case of `Cc1ccn2c(-c3c(C)ccc(O)c3C)c(N)c(C(N)=O)c2n1` [Compound 550, 7-amino-6-(3-hydroxy-2,6-dimethyl-phenyl)-2-methyl-pyrrolo[1,2-a]pyrimidine-8-carboxamide] it was 100 to 1000 nM; in that of `Cc1ccn2c(-c3c(C)ccc(O)c3C)c(N)c(C(N)=O)c2c1` [Compound 552, 2-amino-3-(3-hydroxy-2,6-dimethylphenyl)-7-methylindolizine-1-carboxamide], 100 to 1000 nM; in that of `Cc1cnc2c(c1)c(C(N)=O)c(N)n2-c1c(C)ccc2ocnc12` [Compound 553, 2-amino-5-methyl-1-(5-methylbenzo[d]oxazol-4-yl)-1H-pyrrolo[2,3-b]pyridine-3-carboxamide], 100 to 1000 nM. Consider `Cc1cn2c(C(N)=O)c(N)c(-c3c(C)ccc(O)c3C)c2cn1` [Compound 555, 7-amino-8-(3-hydroxy-2,6-dimethyl-phenyl)-3-methyl-pyrrolo[1,2-a]pyrazine-6-carboxamide], for which the IC50 is less than 50 nM.

In turn, `Cc1ccc(O)c(C)c1-n1c(N)c(C(N)=O)c2cc3c(nc21)OCCN3C` [Compound 568, 7-amino-6-(3-hydroxy-2,6-dimethylphenyl)-1-methyl-1,2,3,6-tetrahydropyrrolo [3′,2′:5,6]pyrido[2,3-b][1,4]oxazine-8-carboxamide] displayed an IC50 of less than 50 nM. In the case of `Cc1ccc(O)c(C)c1-n1c(N)c(C(N)=O)c2cnc(N3CC(O)C3)nc21` [Compound 573] it was less than 50 nM; in that of `Cc1ccc(O)c(C)c1-n1c(N)c(C(N)=O)c2cnc(N[C@H]3CCC[C@@H]3O)nc21` [Compound 579, 6-amino-7-(3-hydroxy-2,6-dimethylphenyl)-2-(((1S,2S)-2-hydroxycyclopentyl)amino)-7H-pyrrolo[2,3-d]pyrimidine-5-carboxamide], less than 50 nM; in that of `Cc1ccc(O)c(C)c1-n1c(N)c(C(N)=O)c2cnc(N[C@@H]3CCC[C@H]3O)nc21` [Compound 580, 6-amino-7-(3-hydroxy-2,6-dimethylphenyl)-2-(((1R,2R)-2-hydroxycyclopentyl)amino)-7H-pyrrolo[2,3-d]pyrimidine-5-carboxamide], less than 50 nM. Take `Cc1ccc(O)c(C)c1-n1c(N)c(C(N)=O)c2cnc(N3CC[C@H](O)C3)nc21` [Compound 581, 6-amino-7-(3-hydroxy-2,6-dimethyl-phenyl)-2-[(3S)-3-hydroxypyrrolidin-1-yl]pyrrolo[2,3-d]pyrimidine-5-carboxamide]: the IC50 is less than 50 nM. In the case of `Cc1ccc(O)c(C)c1-n1c(N)c(C(N)=O)c2c(C)ncc(F)c21` [Compound 582, 2-amino-7-fluoro-1-(3-hydroxy-2,6-dimethyl-phenyl)-4-methyl-pyrrolo[3,2-c]pyridine-3-carboxamide] it was less than 50 nM; in that of `Cc1ccc(O)c(C)c1-n1c(N)c(C(N)=O)c2cnc(N3CC[C@@H](O)C3)nc21` [Compound 583, 6-amino-7-(3-hydroxy-2,6-dimethyl-phenyl)-2-[(3R)-3-hydroxypyrrolidin-1-yl]pyrrolo[2,3-d]pyrimidine-5-carboxamide], less than 50 nM; in that of `Cc1ccc(O)c(C)c1-n1c(N)c(C(N)=O)c2cnc(NC(=O)[C@H]3CCCN3)nc21` [Compound 584, 6-amino-7-(3-hydroxy-2,6-dimethylphenyl)-2-(pyrrolidine-2-carboxamido)-7H-pyrrolo[2,3-d]pyrimidine-5-carboxamide], 100 to 1000 nM.

In turn, `Cc1ccc(O)c(C)c1-n1c(N)c(C(N)=O)c2cncc(C#N)c21` [Compound 587, 2-amino-7-cyano-1-(3-hydroxy-2,6-dimethylphenyl)-1H-pyrrolo[3,2-c]pyridine-3-carboxamide] yielded an IC50 of less than 50 nM. For the compound `Cc1ncc2c(C(N)=O)c(N)n(-c3c(C)c(O)cc(F)c3C)c2n1` [Compound 595, 6-amino-7-(3-fluoro-5-hydroxy-2,6-dimethyl-phenyl)-2-methyl-pyrrolo[2,3-d]pyrimidine-5-carboxamide], the IC50 is less than 50 nM. Turning to `Cc1ccc(O)c(C)c1-n1c(N)c(C(N)=O)c2cnc(C(F)(F)F)nc21` [Compound 608, 6-amino-7-(3-hydroxy-2,6-dimethylphenyl)-2-(trifluoromethyl)-7H-pyrrolo[2,3-d]pyrimidine-5-carboxamide], the IC50 is less than 50 nM. Turning to `CCN(CC)c1ncc2c(C(N)=O)c(N)n(-c3c(C)ccc(O)c3C)c2n1` [Compound 609, 6-amino-2-(diethylamino)-7-(3-hydroxy-2,6-dimethylphenyl)-7H-pyrrolo[2,3-d]pyrimidine-5-carboxamide], the IC50 was less than 50 nM.

Compound `Cc1ccc(O)c(C)c1-n1c(N)c(C(N)=O)c2cnc(Cl)nc21` [Compound 618, 6-amino-2-chloro-7-(3-hydroxy-2,6-dimethylphenyl)-7H-pyrrolo[2,3-d]pyrimidine-5-carboxamide] registered an IC50 of less than 50 nM. The compound `Cc1ncc2c(C(N)=O)c(N)n(-c3c(C)c(O)cc(Cl)c3C)c2n1` [Compound 619, 6-amino-7-(3-chloro-5-hydroxy-2,6-dimethylphenyl)-2-methyl-7H-pyrrolo[2,3-d]pyrimidine-5-carboxamide] registered an IC50 of less than 50 nM. With `Cc1ccc(O)c(C)c1-n1c(N)c(C(N)=O)c2cc3c(nc21)CCN3` [Compound 620], the IC50 is less than 50 nM.

As to `Cc1ccc(O)c(C)c1-n1c(N)c(C(N)=O)c2cnc(C#CC3CC3)nc21` [Compound 621], the IC50 is less than 50 nM.
